Source: the supplement of paper PMC10307832

Tests used:
Test in all cases: relative viability (nuclei count vs DMSO), 5 days (fraction); higher = more cells survive
SK-LU-1 = test system: SK-LU-1
How it was run: (§1)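 Lung cancer cell lines, seeded in 1536-well plates, were treated the following day by pin tool with a single drug or with five library-drug doses (not always all listed) in √10 steps on top of a fixed anchor-drug dose. Cells were fixed and nuclei stained in one step after 5 days, and nuclei were counted. Relative viability is the nuclei count for treated wells divided by that for vehicle wells, reported as medians of duplicate plates.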

NCI-H1975 = test system: NCI-H1975
How it was run: as §1

SW 1573 = test system: SW 1573
How it was run: as §1

HCC-827 = test system: HCC-827
How it was run: as §1

ChaGo-K-1 = test system: ChaGo-K-1
How it was run: as §1

EPLC-272H = test system: EPLC-272H
How it was run: as §1

NCI-H1666 = test system: NCI-H1666
How it was run: as §1

LK-2 = test system: LK-2
How it was run: as §1

HCC-78 = test system: HCC-78
How it was run: as §1

NCI-H2126 = test system: NCI-H2126
How it was run: as §1

NCI-H322M = test system: NCI-H322M
How it was run: as §1

## CC(=O)O[C@@]12CO[C@@H]1C[C@H](O)[C@@]1(C)C(=O)[C@H](O)C3=C(C)[C@@H](OC(=O)[C@H](O)[C@@H](NC(=O)OC(C)(C)C)c4ccccc4)C[C@@](O)([C@@H](OC(=O)c4ccccc4)[C@H]21)C3(C)C [Docetaxel] + Nc1ncn([C@H]2C[C@H](O)[C@@H](CO)O2)c(=O)n1 [Decitabine] (partner 2 µM)
SK-LU-1; first compound 0.0002 µM
  relative viability: 0.613
SK-LU-1; first compound 0.000632 µM
  relative viability: 0.645
SK-LU-1; first compound 0.002 µM
  relative viability: 0.524
SK-LU-1; first compound 0.006325 µM
  relative viability: 0.378
SK-LU-1; first compound 0.02 µM
  relative viability: 0.269
NCI-H1975; first compound 0.0002 µM
  relative viability: 0.37
NCI-H1975; first compound 0.000632 µM
  relative viability: 0.389
NCI-H1975; first compound 0.002 µM
  relative viability: 0.223
NCI-H1975; first compound 0.006325 µM
  relative viability: 0.177
NCI-H1975; first compound 0.02 µM
  relative viability: 0.122
SW 1573; first compound 0.0002 µM
  relative viability: 0.387
SW 1573; first compound 0.000632 µM
  relative viability: 0.296
SW 1573; first compound 0.002 µM
  relative viability: 0.172
SW 1573; first compound 0.006325 µM
  relative viability: 0.165
SW 1573; first compound 0.02 µM
  relative viability: 0.121
HCC-827; first compound 0.0002 µM
  relative viability: 0.2
HCC-827; first compound 0.000632 µM
  relative viability: 0.343
HCC-827; first compound 0.002 µM
  relative viability: 0.279
HCC-827; first compound 0.006325 µM
  relative viability: 0.251
HCC-827; first compound 0.02 µM
  relative viability: 0.236
ChaGo-K-1; first compound 0.0002 µM
  relative viability: 0.461
ChaGo-K-1; first compound 0.000632 µM
  relative viability: 0.548
ChaGo-K-1; first compound 0.002 µM
  relative viability: 0.381
ChaGo-K-1; first compound 0.006325 µM
  relative viability: 0.276
ChaGo-K-1; first compound 0.02 µM
  relative viability: 0.21
EPLC-272H; first compound 0.0002 µM
  relative viability: 0.364
EPLC-272H; first compound 0.000632 µM
  relative viability: 0.308
EPLC-272H; first compound 0.002 µM
  relative viability: 0.179
EPLC-272H; first compound 0.006325 µM
  relative viability: 0.127
EPLC-272H; first compound 0.02 µM
  relative viability: 0.0741
NCI-H1666; first compound 0.0002 µM
  relative viability: 0.594
NCI-H1666; first compound 0.000632 µM
  relative viability: 0.64
NCI-H1666; first compound 0.002 µM
  relative viability: 0.504
NCI-H1666; first compound 0.006325 µM
  relative viability: 0.477
NCI-H1666; first compound 0.02 µM
  relative viability: 0.425
LK-2; first compound 0.0002 µM
  relative viability: 0.348
LK-2; first compound 0.000632 µM
  relative viability: 0.224
LK-2; first compound 0.002 µM
  relative viability: 0.115
LK-2; first compound 0.006325 µM
  relative viability: 0.126
LK-2; first compound 0.02 µM
  relative viability: 0.13
HCC-78; first compound 0.0002 µM
  relative viability: 0.627
HCC-78; first compound 0.000632 µM
  relative viability: 0.654
HCC-78; first compound 0.002 µM
  relative viability: 0.458
HCC-78; first compound 0.006325 µM
  relative viability: 0.511
HCC-78; first compound 0.02 µM
  relative viability: 0.353
NCI-H2126; first compound 0.0002 µM
  relative viability: 0.622
NCI-H2126; first compound 0.000632 µM
  relative viability: 0.548
NCI-H2126; first compound 0.002 µM
  relative viability: 0.463
NCI-H2126; first compound 0.006325 µM
  relative viability: 0.387
NCI-H322M; first compound 0.0002 µM
  relative viability: 0.679
NCI-H322M; first compound 0.000632 µM
  relative viability: 0.609
